Data set [1] relates to RAW264.7 cells. Kind of data set: Cell viability assay (CCK-8). Format: cell-based, Mouse. To be noted: for cytotoxic activity on RAW264.7 macrophage cells: CCK-8, 24 h, among selected hybrid peptides and their parental peptides; for cell viability: RAW264.7 cells, lower doses of peptide, 24 h, CCK-8, OD450, 8 biological replicates. The method, then: The viability of peptide-treated RAW264.7 cells was determined using the Cell Counting Kit-8 (CCK-8) Assay Kit (Dojindo) ([42]). RAW264.7 cells were pre-seeded on a 96-well plate at a density of 3 × 10^4 cells/mL in 100 μL DMEM medium overnight. The cells were either treated with various concentrations of peptides or without peptides at 37°C and 5% CO2 for 24 h. Each well was incubated with 10 μL CCK-8 solution for 4 h in the darkness. Then, the absorbance at 450 nm was measured using a microplate reader. Cell viability was calculated as:
Cell viability (%)=(OD450 (sample)/OD450(control))×100%
where OD450(sample) is the absorbance at 450 nm of the cells with peptides treated and OD450(control) is the absorbance at 450 nm of the cells without peptides treated.

For data set [2], the system named is LPS-stimulated RAW264.7 cells. Kind of data set: ELISA of cytokine release from LPS-stimulated RAW264.7 cells. Format: cell-based, Mouse. As to conditions: RAW264.7, 10 μg/mL peptide 1 h before 100 ng/mL LPS, 12 h, ELISA of supernatant; compared to the other tested peptides; n = 3. The method, then:
(§1) RAW264.7 cells were treated with or without 10 μg/mL peptides for 1h before the addition of 100 ng/mL LPS and further incubation for 12 h at 37°C. Levels of tumor necrosis factor-alpha (TNF-α), interleukin-6 (IL-6), and IL-1β were detected in culture supernatant and jejunum, respectively. In addition, the level of interferon-gamma (IFN-γ) was detected in the jejunum. ELISA was performed using a commercial ELISA kit (eBioscience, San Diego, USA).

Data set [3] is described as follows: Neutralization of LPS, Chromogenic End-point Tachypleus Amebocyte Lysate (CE TAL) assay. Format: biochemical, E. coli. The method, then:
The neutralization of LPS by the peptides was assessed using a quantitative Chromogenic End-point Tachypleus Amebocyte Lysate (CE TAL) assay via the QCL-1000 kit (Xiamen, China). A constant concentration of LPS (1.0 EU/mL final concentration; E. coli, O111:B4, Sigma-Aldrich, USA) was incubated with various concentrations of the peptides or polymyxin B (PMB) (0–64 μg/mL final concentration; Sigma-Aldrich, USA) at 37°C for 15 min in the wells of […] sterile microliters plates. The 100 μL aliquots concentrate of limulus amebocyte lysate reagent was added and incubated at 37°C for 6 min. On the addition of chromogenic substrate, yellow color appeared. The reactions were stopped by adding 25% HCl, and then the absorbances measured at 540 nm ([45]).

The test system of data set [4] is LPS-induced intestinal inflammation. Kind of data set: LPS-induced intestinal inflammation murine model. Format: in vivo, C57/BL6 male mice. The method, then:
Seventy-two C57/BL6 male mice (6–8 weeks of age) were purchased from Charles River (Beijing, China). Mice were maintained in a specific pathogen free (SPF) environment at 22 ± 1°C with relative 55 ± 10% humidity, and the assays were performed in conformity with the laws and regulations for live animal treatment at China Agricultural University.
The mice were randomly distributed into six groups (n = 12 each): control, LPS (E. coli, O111:B4, Sigma-Aldrich, USA) treatment, LL-37 pretreatment followed by LPS treatment (LL-37 + LPS), Tα1 pretreatment followed by LPS treatment (Tα1 + LPS), LTA pretreatment followed by LPS treatment (LTA + LPS). Different peptides (10 mg/kg mouse weight) were injected intraperitoneally once daily for 7 days, whereas an equal volume of sterile saline was injected intraperitoneally to the control and LPS-treated groups. On day 7, mice in LPS, LL-37 + LPS, Tα1 + LPS, and LTA + LPS groups were intraperitoneally injected with LPS (10 mg/kg mouse weight) 1h after saline or the peptides treatment, and the control group was intraperitoneally injected with an equal volume of saline. The mice were then euthanized by cervical dislocation 6 h after intraperitoneal injection of LPS or saline, and samples of the intestines were collected for analysis. The body weights of the mice were recorded before and after the experiment.
Intestinal tissues samples from the jejunum were fixed in 4% paraformaldehyde immediately after the mice were euthanized. After embedding, the tissues were sectioned (5 μm) using an RM2235 microtome (Leica) and stained with hematoxylin-eosin (H&E). Images were acquired using a DM3000 microscope. LPS-induced intestinal injury was evaluated using Chiu's score ([43]) according to changes of the villus and glands of the jejunal mucosa. Villus height and crypt depth were measured using CaseViewer software.
For immunohistochemical analysis of CD177^+, nonspecific binding sites were blocked with PBS containing 1% w/v BSA for 1 h. Anti-CD177^+ antibodies (Santa, USA) were added at a dilution of 1:100 and incubated overnight at 4°C. Samples were washed five times in PBS and treated with horse-radish peroxidase (HRP)-conjugated rabbit anti-goat IgG (JIR, USA) at ratio of 1:100; samples were left to incubate at 4°C for 1 h. After washing with PBS, 3,3′-diaminobenzidine (DAB; DAKO, USA) was added, and the slides were counterstained with Harris hematoxylin. Finally, the samples were dehydrated in an alcohol gradient (70–100%), and cleared in xylene. All slides were mounted in neutral balsam.
The apoptotic cells in the jejunal sections were detected via a commercial the terminal deoxynucleotidyl transferase mediated dUTP nick end labeling (TUNEL) staining kit according to the manufacturer's instruction (Roche, Indianapolis, IN, USA). The sections were co-stained with the DAPI (Servicebio, Wuhan, China). The number of apoptotic cells was counted in four to six randomly selected fields at 200 × magnification.
as §1
The activities of myeloperoxidase (MPO) in the jejunum were detected using ELISA kits (Boster Wuhan, China) according to the manufacturer's instructions.
Whole protein of intestinal tissues was obtained with the whole protein extraction kit (KeyGEN Biotech, Nanjing, China) according to the manufacturer's instructions. The protein concentration was measured via the BCA kit (KeyGEN Biotech, Nanjing, China). […]

Where [5] appears, read: ELISA, peptide 10 mg/kg i.p. pretreatment, LPS 10 mg/kg, LTA compared to Tα1- or LL-37-pretreated groups, n = 12.
Where [6] appears, read: jejunal tissues, western blot, LTA pretreatment vs LPS, n = 3.
Setting [7] is: jejunum, western blot, LTA 10 mg/kg i.p. pretreatment, LPS 10 mg/kg.

Consider “IGKEFKRIVQRIKDFLRNLVPRTERKDVT [LTP, hybrid peptide LL-37-TP5]”, for which, in data set [1], the “cytotoxic activity on RAW264.7 macrophage cells” value is recorded as “lowest cytotoxic activity” and the cell viability result is listed as “greater than 100%”.

For the sequence “IGKEFKRIVQRIKDFLRNLVPRTEKEKKEVVE [LTA, hybrid peptide LL-37-Tα1]”, in data set [1], the “cytotoxic activity on RAW264.7 macrophage cells” value is reported as “lowest cytotoxic activity” and the cell viability entry was “greater than 100%”. Also, in data set [2], the “release of IL-1β” value is on record as “remarkable decrease”, the “release of IL-6” value is recorded as “remarkable decrease” and the “release of TNF-α” value is given as “remarkable decrease”. For the same sequence, the “concentration that completely neutralizes LPS” value in data set [3] (LPS 1.0 EU/mL, 37°C 15 min, CE TAL, n = 3) was no less than 8 µg/mL. For the same sequence, the “inhibition of the activation of tachypleus amebocyte lysate (LPS neutralization)” value in data set [3] (LPS 1.0 EU/mL, peptide 0–64 μg/mL, 37°C 15 min, n = 3) is “dose-dependent manner”. In data set [3] (in vitro, CE TAL, statement of the discussion), the “concentration that almost completely neutralizes LPS” value is 8 µg/mL. The “plasma LPS level” value in data set [4] (CE TAL test of mouse plasma, LTA 10 mg/kg i.p. pretreatment, LPS 10 mg/kg) is on record as “significantly reduced the plasma LPS level”. The “MPO activity in the jejunum” value in data set [4] (ELISA kit, peptide 10 mg/kg i.p. pretreatment, LPS 10 mg/kg, compared to the LPS-treated group, n = 12) is given as “markedly decreased MPO activity”. Also, in data set [4] (setting [5]), the “IFN-γ concentration in the jejunum” value was “significantly lower”, the “IL-1β concentration in the jejunum” value is “significantly lower”, the “IL-6 concentration in the jejunum” value is “significantly lower” and the “TNF-α concentration in the jejunum” value is on record as “significantly lower”. For the same sequence, the “infiltration of CD177+ neutrophils into jejunal tissue” value in data set [4] (immunohistochemistry, peptide 10 mg/kg i.p. pretreatment, LPS 10 mg/kg) was “reduced this effect to the basal level”. The “apoptosis index (TUNEL staining)” value in data set [4] (jejunal sections, peptide 10 mg/kg i.p. pretreatment, LPS 10 mg/kg, compared to the LPS-treated group) is on record as “significantly reduced the apoptosis index”. Moreover, in data set [4] (setting [6]), the “phosphorylation of IKK-β” value is “decreased”, the “phosphorylation of IκB-α” value is given as “decreased” and the “phosphorylation of NF-κB” value is on record as “decreased”. The “Chiu's score” value in data set [4] (jejunum H&E, mice, peptide 10 mg/kg i.p. once daily for 7 days, LPS 10 mg/kg i.p., 6 h after LPS, LPS group 3.33 ± 0.58, mean ± SD) stood at 0.67 ± 0.58. In data set [4] (setting [7]), the “expression of Occludin” value was “significantly higher than that in the LPS-group” and the “expression of ZO-1” value is reported as “significantly higher than that in the LPS-group”. In data set [4] (jejunum, mice, peptide 10 mg/kg i.p. once daily for 7 days, LPS 10 mg/kg i.p., 6 h after LPS, LPS group 2.35 ± 0.389, mean ± SD), the “villus height to crypt depth (V/C) ratio” value was 4.19 ± 0.364. The “body weight (weight loss after LPS)” value in data set [4] (mice, peptide 10 mg/kg i.p. once daily, then LPS 10 mg/kg i.p. 1 h after last dose, n = 12) is “recovered their weight loss rapidly”.

These data come from article PMC6691347, “Design and Development of a Novel Peptide for Treating Intestinal Inflammation” (Frontiers in Immunology, 2019).
